Test results from US20230277630A1, “METHODS AND COMPOSITIONS FOR TREATING AMYOTROPHIC LATERAL SCLEROSIS” (Amylyx Pharmaceuticals, Inc., priority 2022, published 2023).
“And” between values parts separate entries of the source, which are not always exact repeats. Equal entries are not always repeated.

Tests used:
[1] = Chemical stability in HBSSg_7.4 and HBSS_8.5; assay type: physicochemical
Procedure: The test article was prepared in DMSO stock (0.5 mM), and aliquots of the DMSO stock were added to each matrix. The nominal concentration of each component was 0.5 μM in each matrix. […] At pre-determined time points, an equal volume of acetonitrile with internal standard was added to each vial, and the mixture was placed at 4° C. until the end of the assay. The peak areas of the test article and IS of each sample were determined by LC-MS/MS, and the ratios of the peak areas (analyte: IS) were calculated.

OAT3 = molecular target: T1, OAT3 (Homo sapiens, UniProt Q8TCC7)
T1 sequence (Q8TCC7 1-542): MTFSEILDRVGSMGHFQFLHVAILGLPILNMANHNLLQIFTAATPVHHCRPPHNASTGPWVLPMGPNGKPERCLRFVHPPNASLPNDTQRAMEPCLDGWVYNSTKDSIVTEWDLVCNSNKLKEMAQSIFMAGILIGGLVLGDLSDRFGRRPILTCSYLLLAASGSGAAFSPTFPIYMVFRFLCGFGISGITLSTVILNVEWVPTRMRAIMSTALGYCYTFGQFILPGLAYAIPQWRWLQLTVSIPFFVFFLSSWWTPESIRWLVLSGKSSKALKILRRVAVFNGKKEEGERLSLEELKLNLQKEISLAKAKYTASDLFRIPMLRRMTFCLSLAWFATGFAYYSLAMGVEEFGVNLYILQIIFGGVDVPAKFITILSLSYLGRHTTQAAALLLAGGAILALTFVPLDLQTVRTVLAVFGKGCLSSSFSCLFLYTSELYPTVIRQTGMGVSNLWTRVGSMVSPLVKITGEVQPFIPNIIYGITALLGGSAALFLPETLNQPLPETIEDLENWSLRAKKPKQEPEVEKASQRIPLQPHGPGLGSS

[2] = molecular target: T2, human liver microsomes (HLM) (Homo sapiens, UniProt P10632); test: CYP reaction phenotyping using HLM and chemical inhibitors (% remaining); assay type: in vitro ADME; conditions: human, microsomes, 5 μM, pH 7.4
T2 construct: from tissue; host or cells: pooled human liver microsomes
T2 sequence (P10632 1-490): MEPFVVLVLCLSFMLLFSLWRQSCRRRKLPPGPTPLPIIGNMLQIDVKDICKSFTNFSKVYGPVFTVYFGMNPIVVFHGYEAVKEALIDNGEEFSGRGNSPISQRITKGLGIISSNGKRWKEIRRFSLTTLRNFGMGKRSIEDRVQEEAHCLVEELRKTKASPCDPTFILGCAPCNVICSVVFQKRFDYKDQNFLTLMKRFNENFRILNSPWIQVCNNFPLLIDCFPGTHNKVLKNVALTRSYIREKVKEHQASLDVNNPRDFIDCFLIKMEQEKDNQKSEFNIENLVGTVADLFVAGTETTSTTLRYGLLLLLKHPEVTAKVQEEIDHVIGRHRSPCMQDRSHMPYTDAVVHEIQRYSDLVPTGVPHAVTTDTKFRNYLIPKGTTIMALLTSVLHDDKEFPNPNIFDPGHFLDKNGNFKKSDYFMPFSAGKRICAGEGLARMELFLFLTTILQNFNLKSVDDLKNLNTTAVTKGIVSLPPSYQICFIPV
Excerpt: (§1) % Remaining of TA=100×At/A0
(§2) Where, At and A0 are the peak area ratio of TA to IS at time t and at time zero, respectively.

[3] = molecular target: T3, human liver microsomes (HLM) (Homo sapiens, UniProt P20813); test: as above; assay type: in vitro ADME; conditions: human, microsomes, 5 μM, pH 7.4
T3 construct: from tissue; host or cells: pooled human liver microsomes
T3 sequence (P20813 1-491): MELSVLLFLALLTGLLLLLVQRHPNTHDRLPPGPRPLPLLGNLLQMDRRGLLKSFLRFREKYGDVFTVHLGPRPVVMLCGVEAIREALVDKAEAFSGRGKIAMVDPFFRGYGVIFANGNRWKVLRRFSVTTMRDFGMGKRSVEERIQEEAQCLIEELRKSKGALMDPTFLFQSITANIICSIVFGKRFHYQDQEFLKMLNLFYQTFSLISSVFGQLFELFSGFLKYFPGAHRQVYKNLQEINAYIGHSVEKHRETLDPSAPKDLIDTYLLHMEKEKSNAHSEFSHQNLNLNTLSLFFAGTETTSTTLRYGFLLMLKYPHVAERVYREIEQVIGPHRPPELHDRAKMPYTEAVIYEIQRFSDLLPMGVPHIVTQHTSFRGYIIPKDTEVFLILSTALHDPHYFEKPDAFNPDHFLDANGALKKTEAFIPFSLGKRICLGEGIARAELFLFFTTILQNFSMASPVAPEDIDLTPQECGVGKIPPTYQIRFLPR
Excerpt: as §1, §2

P-gp and BCRP = test: in vitro; conditions: human
Procedure: The P-gp and BCRP substrate assessment was conducted in C2BBe1 cell monolayers. […] LY was co-dosed with each dosing solution at a nominal concentration of 200 μM.
The cell culture medium was aspirated, and the cell monolayers were rinsed once with HBSSg_7.4. […] For receiver samples, aliquots (300 μL) were taken at pre-selected time points. […] For donor samples, aliquots (50 μL) were taken at pre-selected time points without replacement.

[4] = CYP reaction phenotyping: CYP control (negative control without CYP enzymes); conditions: CYP Control (without CYP enzymes) 0.1 mg protein/mL, TA 5 μM
Procedure: The reaction was initiated by the addition of NADPH, followed by incubation at 37° C.

[5] = Caco-2, pH 7.4, AP-to-BL Papp of TUDCA
[6] = Caco-2, pH 7.4, AP-to-BL Recovery of TUDCA
[7] = Caco-2, pH 7.4, BL-to-AP Papp of TUDCA
[8] = Caco-2, pH 7.4, BL-to-AP Recovery of TUDCA

For `O=C(O)CCCc1ccccc1` [PB, sodium phenylbutyrate], the “Percent of the 0-minute value” ([1]; HBSSg_7.4, Overnight (1020-[…])) was 105%, the “Percent of the 0-minute value” ([1]; HBSSg_7.4, sampling time 0 minutes) was 100% and the “Percent of the 0-minute value” ([1]; HBSSg_7.4, sampling time 120 minutes) was 99.3%. The “chemical stability in the tested matrices” value ([1]; HBSSg_7.4 and HBSS_8.5, 37° C., 0.5 μM) was “appeared to be stable”, the “Percent of the 0-minute value” ([1]; HBSSg_8.5, Overnight (1020-[…])) was 98.6% and the “Percent of the 0-minute value” ([1]; HBSSg_8.5, sampling time 0 minutes) was 100%. The “Percent of the 0-minute value” ([1]; HBSSg_8.5, sampling time 120 minutes) was 79.4% and the IC50 (OAT3) was 4930 to 14800 µM.
In the case of `C[C@H](CCC(=O)NCCS(=O)(=O)O)[C@H]1CC[C@H]2[C@@H]3[C@@H](O)C[C@@H]4C[C@H](O)CC[C@]4(C)[C@H]3CC[C@]12C` [TUDCA, tauroursodeoxycholic acid], the “% Remaining of TA (n = 3) Average” value ([2]; 0 h) is reported as 100%, the “% Remaining of TA (n = 3) Average” value ([2]; 5 min) is reported as 101% and the “% Remaining of TA (n = 3) Average” value ([2]; 10 min) is reported as 103%. The “% Remaining of TA (n = 3) Average” value ([2]; 20 min) was 95.5%, the “% Remaining of TA (n = 3) Average” value ([2]; 0.5 h) was 105% and the “% Remaining of TA (n = 3) Average” value ([2]; 1 h) was 97.7%. The “% Remaining of TA (n = 3) Average” value ([3]; 0 h) was 100%, the “% Remaining of TA (n = 3) Average” value ([3]; 5 min) was 112% and the “% Remaining of TA (n = 3) Average” value ([3]; 10 min) was 112%. For the same compound, the “% Remaining of TA (n = 3) Average” value ([3]; 20 min) was 122%, the “% Remaining of TA (n = 3) Average” value ([3]; 0.5 h) was 116% and the “% Remaining of TA (n = 3) Average” value ([3]; 1 h) was 102%. The Papp A→B at 1.62 µM (P-gp and BCRP; [5]) was 9.59 ×10⁻⁶ cm/s, the Papp A→B at 81 µM (P-gp and BCRP; [5]) was 5.84 ×10⁻⁶ cm/s and the Papp A→B at […] (P-gp and BCRP; [5]) was 7.47 ×10⁻⁶ cm/s. It also gave a recovery at 1.62 μM (P-gp and BCRP; [6]) of 78.5%, a recovery at 16.2 μM (P-gp and BCRP; [6]) of 71.6% and a recovery at 81 μM (P-gp and BCRP; [6]) of 101%. For the same compound, the Papp B→A at 1.62 µM (P-gp and BCRP; [7]) was 1.75 ×10⁻⁶ cm/s, the Papp B→A at 16.2 µM (P-gp and BCRP; [7]) was 0.553 ×10⁻⁶ cm/s and the Papp B→A at 81 µM (P-gp and BCRP; [7]) was 2.66 ×10⁻⁶ cm/s. It also gave a Papp B→A at […] (P-gp and BCRP; [7]) of 1.94 ×10⁻⁶ cm/s, a recovery at 1.62 μM (P-gp and BCRP; [8]) of 79.5% and a recovery at 16.2 μM (P-gp and BCRP; [8]) of 76.1%. For the same compound, the recovery at 81 μM (P-gp and BCRP; [8]) was 101%, the “% Remaining of TA” value ([4]; 0 min) was 100% and the “% Remaining of TA” value ([4]; 5 min) was 99.4%. The “% Remaining of TA” value ([4]; 10 min) was 97.9%, the “% Remaining of TA” value ([4]; 20 min) was 95.9% and the “% Remaining of TA” value ([4]; 30 min) was 93.7%. The IC50 (OAT3) was 54 to 162 µM and 5.4 to 162 µM.
